The values that follow come from PubChem BioAssay (NCI).

Where “and” joins values, the source holds several entries; their conditions need not be identical. Equal entries are not always repeated.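 Exposure lasted 48 hours, with cells grown in 96-well plates and compounds tested at five concentrations. At the GI50, growth is halved. TGI denotes the concentration required for complete inhibition of growth.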 Where only a bound is given, the exact number is not on record here.

Common to all, as to test: NCI anticancer screen, dose series, 48 h
Assay [1] has as its system BT-549 breast.
The test system of assay [2] is DU-145 prostate.
The test system of assay [3] is HOP-62 NSCLC.
The subject of assay [4] is HT29 colon.
The test system of assay [5] is LOX IMVI melanoma.
Assay [6] deals with MCF7 breast.
The subject of assay [7] is MDA-MB-231 breast.
The test system of assay [8] is OVCAR-4 ovarian.
Assay [9] concerns RPMI-8226 leukemia.
The subject of assay [10] is SK-MEL-2 melanoma.

For the compound `C[C@]12CC[C@@H]3c4ccc(O)cc4CC[C@H]3[C@@H]1CC[C@@H]2NS(=O)(=O)c1cccc(Cl)c1`, the GI50 in assay [1] is 2150 nM; in assay [2] it was 4170 nM; in assay [3] it was 4460 nM; in [4] it was 2470 nM; in assay [5], 1750 nM; in assay [6], 2920 nM. Also, the GI50 in assay [7] was 2440 nM; in assay [8], 2200 nM; in assay [9], 2970 nM; in [10], 2460 nM. Also, the TGI in [1] came to 5250 nM; in assay [2], 14900 nM; in [3] it was 15300 nM; in [4] it was 6060 nM; in assay [5] it was 3400 nM; in assay [6], 7460 nM. The TGI in [7] is 7750 nM; in assay [8], 10500 nM; in [9], 11300 nM; in [10], 5730 nM.

`CC(=O)O[C@@]12CO[C@@H]1C[C@H](O)[C@@]1(C)C(=O)[C@H](O)C3=C(C)[C@@H](OC(=O)[C@H](O)[C@@H](NC(=O)OC(C)(C)C)c4ccccc4)C[C@@](O)([C@@H](OC(=O)c4ccccc4)C12)C3(C)C` (some centres not stated): the TGI was 33.8 nM in assay [1]; 50000 nM and > 100000 nM in assay [3]; 41700 nM in assay [4]; 79000 nM in assay [5]; 50000 nM and 33500 nM in [6]; 28000 nM and > 100000 nM in assay [7]. In addition, the TGI in assay [8] is greater than 100000 nM; in assay [9], 34000 nM and 24500 nM; in [10], greater than 100000 nM. The GI50 in assay [2] is less than 5 nM; in assay [3], less than 5 nM; in assay [4] it was less than 5 nM; in [6], less than 5 nM; in [7] it was 7.51 nM and 71.7 nM; in assay [8], 12600 nM. For the same compound, the GI50 is less than 5 nM in [9] and 35.5 nM in [10].

Turning to `COc1ccc(OC)c(NC(=O)c2cccc(NC3=C(Cl)C(=O)N(Cc4ccccc4)C3=O)c2)c1`, the GI50 in assay [1] is 18300 nM; in assay [2], 27800 nM; in assay [3], greater than 83500 nM; in assay [4], greater than 100000 nM; in assay [5] it was greater than 100000 nM; in assay [6] it was greater than 48200 nM. For the same compound, the GI50 in [7] is greater than 35700 nM; in assay [8], greater than 100000 nM; in assay [9], 15900 nM; in [10] it was greater than 100000 nM. Also, the TGI in [1], in assay [2], in assay [3], in [4], in [5] and in assay [6] was greater than 100000 nM each time. The TGI in [7] was greater than 54100 nM; in assay [8] it was greater than 100000 nM; in assay [9], greater than 79000 nM; in assay [10], greater than 100000 nM.

On to `Cc1cc2c(cc1C)[n+](=O)c(C(=O)/C=C/c1ccc3c(c1)OCO3)c(C)n2[O-]`, for which the TGI in [1] was greater than 100000 nM; in assay [2] it was greater than 100000 nM; in assay [3], 59100 nM; in assay [4], greater than 100000 nM; in assay [5], greater than 85200 nM; in assay [6] it was greater than 100000 nM. For the same compound, the TGI in assay [7] is greater than 100000 nM; in assay [8] it was greater than 100000 nM; in [9], greater than 100000 nM; in [10], 88600 nM.

As to `CCCCC[C@H]1CC=C2C(=O)C=C[C@@H]2CC=CCCCC(=O)O[C@@H](CCCCC)CC=C2C(=O)C=C[C@@H]2CC=CCCCC(=O)O[C@@H](CCCCC)CC=C2C(=O)C=C[C@@H]2CC=CCCCC(=O)O1`, the GI50 in [1] is 241 nM; in [2], 353 nM; in [3], 259 nM; in assay [4], 313 nM; in [5], 150 nM; in assay [6], 286 nM. The GI50 in assay [7] was 249 nM; in assay [8], 317 nM; in assay [9], 256 nM; in [10], 281 nM. The TGI in assay [1] was determined as 772 nM; in assay [2], 2520 nM; in [3], 775 nM; in assay [4], 1210 nM; in [5], 306 nM; in [6], 2200 nM. The TGI in assay [7] is 697 nM; in [8], greater than 8750 nM; in assay [9], 821 nM; in assay [10] it was 969 nM.

Take `CCC#CC[C@H](O)C/C=C1/C(=O)C=C[C@@H]1C/C=C\CCCC(=O)OC`: the GI50 is 1220 nM in [1]; 1750 nM in assay [2]; 1560 nM in [3]; 991 nM in assay [4]; 754 nM in [5]; 297 nM in assay [6]. Further, the GI50 is 1950 nM in [7], 2250 nM in assay [8], 657 nM in assay [9] and 995 nM in assay [10]. For the same compound, the TGI in [1] stood at 3040 nM; in assay [2], 7260 nM; in assay [3], 4490 nM; in assay [4] it was 2460 nM; in assay [5], 1540 nM; in [6], 7010 nM. Further, the TGI in assay [7] came out at 7780 nM; in [8], 8640 nM; in assay [9], 2860 nM; in [10] it was 2760 nM.
